Experimental findings from ChEMBL document CHEMBL5625264, “Identification of (4-chlorophenyl)(5-hydroxynaphtho[1,2-b]furan-3-yl)methanone as novel COX-2 inhibitor with analgesic profile” (Bioorg Med Chem Lett, 2024) are described below.

For assay [1], the system named is Mus musculus. The experiment in a line: Analgesic activity in ip dosed CFA-induced ICR mouse model of chronic inflammatory pain pretreated with CFA for 3 days followed by compound administration and measured at 30 to 300 min by pain behavior test. The note with it: time 30-300 min. Format: functional, organism-based.
For assay [2], the system named is Mus musculus. The experiment in a line: Analgesic activity in ip dosed formalin-induced ICR mouse model of acute inflammatory pain. It counts as functional, organism-based.

The source made the active and inactive calls. No cut-off for these calls is given here.

Take `O=C(Nc1ccccc1NC(=O)c1ccc2c(c1)OCO2)c1ccc2c(c1)OCO2`: the result in assay [1] was Active.

With `NS(=O)(=O)c1ccc(-c2sncc2-c2ccc(F)cc2)cc1`, the outcome in assay [2] and in assay [1] was Active.

With `O=C(c1ccc(Cl)cc1)c1coc2c1cc(O)c1ccccc12`, the result in assay [2] and in assay [1] was Active.
